Legend:
[1] = tested on: rabbit aorta; assay: In vitro vasorelaxing activity (aorta strip contracted with noradrenaline); conditions: Oryctolagus cuniculus, contraction induced by noradrenaline
Procedure: The vasorelaxing activity of the compounds of the invention was determined on rabbit aorta which had been contracted with noradrenaline, according to the method described in Eur. J. Pharmacol, 141, 195 (1987).
IC50 = concentration of active substance, expressed in mole/liter,
able to inhibit by 50% the contraction of the aorta "strip" induced by […]

[2] = tested on: Sprague Dawley anaesthetized rats; assay: Vasopressine angina in the anaesthetized rat (in vivo antianginal activity); parameters: species or system Sprague Dawley rat; conditions: 3 mg/kg by gastric gavage, 1 hour before Arg-vasopressin i.v.
Procedure: The in vivo antianginal activity was evidenced on Sprague Dawley anaesthetized rats, weighing 350-400 g, operating according to the procedure of M. Leitold et al., Arzneim. Forsch. 36, 1454, 1986. The test was carried out administering the animal intravenously with 1 I. U./kg, equivalent to […] of Arg-vasopressin, which induces a coronary spasm which can be reproduced and evidenced electrocardiographycally with an increase in the amplitude of the T wave. The compounds of the invention were admininistered by gastric gavage at a dose of 3 mg/kg, 1 hour before administration of Argvasopressin. The antianginal effect was expressed as percent inhibition of the T wave increase versus controls.

Q: Which IC50 [1] does the source give for `O=C1c2ccccc2C(O)N1CCO[N+](=O)[O-]` (centres unmarked) [Example 1, 3-Hydroxy-2-(2-nitrooxyethyl)-1-oxoisoindolin] here?
A: 1300 nM

Q: And the “Effect (percent inhibition of the T wave increase versus controls)” value [2]?
A: -56.1%

Q: `CC(=O)OC1c2ccccc2C(=O)N1CCO[N+](=O)[O-]` (centres unmarked) [Example 2, 3-Acetoxy-2-(2-nitrooxyethyl)-1-oxoisoindolin] was tested. Which IC50 [1] did it give?
A: 1200 nM

Q: `CCCC(=O)OC1c2ccccc2C(=O)N1CCO[N+](=O)[O-]` (centres unmarked) [Example 3] was tested. Which IC50 [1] did it give?
A: 2400 nM

Q: What about the “Effect (percent inhibition of the T wave increase versus controls)” value [2] of the same molecule?
A: -55.2%

Q: Which results are given for `O=C(OC1c2ccccc2C(=O)N1CCO[N+](=O)[O-])c1ccccc1` (centres unmarked) [Example 4, 3-Benzoyloxy-2-(5-nitrooxyethyl)-1-oxoisoindolin]?
A: IC50 [1]: 3200 nM; Effect (percent inhibition of the T wave increase versus controls) [2]: -34.5%

Q: With `O=C1c2ccccc2C(O)N1CCCCCO[N+](=O)[O-]` (centres unmarked) [Example 5, 3-Hydroxy-2-(5-nitrooxypentyl)-1-oxoisoindolin] as the molecule, how does the IC50 [1] read?
A: 13000 nM

Source: patent publication US5376673A, “Isoindoles having cardiovascular activity” (Italfarmaco S.p.A., priority 1991, dated 1994)
